In the CheMixHub ionic liquid set:
± gives the uncertainty stated by the source.

Experiment: xn = mol fraction of the nth substance listed

CCCCCCCCCC[n+]1ccn(C)c1.[Cl-] + OC[C@H]1O[C@@](CO)(O[C@H]2O[C@H](CO)[C@@H](O)[C@H](O)[C@H]2O)[C@@H](O)[C@@H]1O + O
298.15 K, 101.3 kPa
Conditions | electrical conductivity [S/m]
x2 = 0, x1 = 6.46e-06 | 0.00385 ± 4e-05
x2 = 0, x1 = 9.55e-06 | 0.00548 ± 6e-05
x2 = 0, x1 = 1.262e-05 | 0.00708 ± 7e-05
x2 = 0, x1 = 1.582e-05 | 0.00872 ± 9e-05
x2 = 0, x1 = 1.894e-05 | 0.0103 ± 0.0001
x2 = 0, x1 = 2.2e-05 | 0.0118 ± 0.00012
x2 = 0, x1 = 2.507e-05 | 0.01334 ± 0.00013
x2 = 0, x1 = 2.8e-05 | 0.0148 ± 0.00015
x2 = 0, x1 = 3.092e-05 | 0.0162 ± 0.00016
x2 = 0, x1 = 3.384e-05 | 0.0176 ± 0.00018
x2 = 0.003591, x1 = 7.14e-06 | 0.00361 ± 4e-05
x2 = 0.003591, x1 = 1.162e-05 | 0.00554 ± 6e-05
x2 = 0.003591, x1 = 1.987e-05 | 0.00901 ± 9e-05
x2 = 0.003591, x1 = 2.367e-05 | 0.0106 ± 0.00011
x2 = 0.003591, x1 = 2.764e-05 | 0.01214 ± 0.00012
x2 = 0.003591, x1 = 3.131e-05 | 0.0136 ± 0.00014
x2 = 0.003591, x1 = 3.559e-05 | 0.01531 ± 0.00015
x2 = 0.003591, x1 = 3.942e-05 | 0.0168 ± 0.00017
x2 = 0.003591, x1 = 4.357e-05 | 0.0184 ± 0.00018
x2 = 0.007156, x1 = 4.94e-06 | 0.00234 ± 2e-05
x2 = 0.007156, x1 = 9.37e-06 | 0.0041 ± 4e-05
x2 = 0.007156, x1 = 1.394e-05 | 0.00589 ± 6e-05
x2 = 0.007156, x1 = 1.816e-05 | 0.00752 ± 8e-05
x2 = 0.007156, x1 = 2.215e-05 | 0.00905 ± 9e-05
x2 = 0.007156, x1 = 2.62e-05 | 0.0106 ± 0.00011
x2 = 0.007156, x1 = 3.004e-05 | 0.01205 ± 0.00012
x2 = 0.007156, x1 = 3.378e-05 | 0.0135 ± 0.00014
x2 = 0.007156, x1 = 3.734e-05 | 0.0148 ± 0.00015
x2 = 0.007156, x1 = 4.078e-05 | 0.01606 ± 0.00016
x2 = 0.0107, x1 = 8.82e-06 | 0.00336 ± 3e-05
x2 = 0.0107, x1 = 1.279e-05 | 0.00469 ± 5e-05
x2 = 0.0107, x1 = 1.666e-05 | 0.00596 ± 6e-05
x2 = 0.0107, x1 = 2.02e-05 | 0.00712 ± 7e-05
x2 = 0.0107, x1 = 2.387e-05 | 0.00828 ± 8e-05
x2 = 0.0107, x1 = 2.723e-05 | 0.00939 ± 9e-05
x2 = 0.0107, x1 = 3.056e-05 | 0.0105 ± 0.00011
x2 = 0.0107, x1 = 3.344e-05 | 0.01139 ± 0.00011
x2 = 0.0107, x1 = 3.674e-05 | 0.0124 ± 0.00013
x2 = 0.0107, x1 = 3.975e-05 | 0.0134 ± 0.00013
x2 = 0.01421, x1 = 8.46e-06 | 0.00279 ± 3e-05
x2 = 0.01421, x1 = 1.229e-05 | 0.00388 ± 4e-05
x2 = 0.01421, x1 = 1.596e-05 | 0.00491 ± 5e-05
x2 = 0.01421, x1 = 1.986e-05 | 0.00599 ± 6e-05
x2 = 0.01421, x1 = 2.304e-05 | 0.00688 ± 7e-05
x2 = 0.01421, x1 = 2.641e-05 | 0.0078 ± 8e-05
x2 = 0.01421, x1 = 2.985e-05 | 0.00874 ± 9e-05
x2 = 0.01421, x1 = 3.276e-05 | 0.00953 ± 0.0001
x2 = 0.01421, x1 = 3.602e-05 | 0.01042 ± 0.0001
x2 = 0.01421, x1 = 3.892e-05 | 0.01121 ± 0.00011
x2 = 0.0177, x1 = 1.052e-05 | 0.00291 ± 3e-05
x2 = 0.0177, x1 = 1.539e-05 | 0.00407 ± 4e-05
x2 = 0.0177, x1 = 2e-05 | 0.00515 ± 5e-05
x2 = 0.0177, x1 = 2.419e-05 | 0.00614 ± 6e-05
x2 = 0.0177, x1 = 2.851e-05 | 0.00714 ± 7e-05
x2 = 0.0177, x1 = 3.269e-05 | 0.0081 ± 8e-05
x2 = 0.0177, x1 = 3.635e-05 | 0.00895 ± 9e-05
x2 = 0.0177, x1 = 4.032e-05 | 0.00985 ± 0.0001
x2 = 0.0177, x1 = 4.414e-05 | 0.0107 ± 0.00011

CCCCCC[NH2+]CCN.O=S(=O)([N-]S(=O)(=O)C(F)(F)F)C(F)(F)F + O
101.3 kPa
Conditions | electrical conductivity [S/m] | viscosity [mPa·s]
308.15 K, x1 = 0.5022 | 0.182 ± 0.004 | 77.8 ± 2.4
318.15 K, x1 = 0.5763 | 0.188 ± 0.0038 | 50.3 ± 1.4
323.15 K, x1 = 0.401 | 0.589 ± 0.012 | 21.2 ± 0.6
328.15 K, x1 = 0.5022 | 0.42 ± 0.01 | 29.1 ± 0.8
328.15 K, x1 = 0.6828 | 0.233 ± 0.005 | 45.5 ± 1.3
338.15 K, x1 = 0.5022 | 0.6 ± 0.1 | 19.7 ± 0.5
343.15 K, x1 = 0.6828 | 0.428 ± 0.009 | 24.2 ± 0.7
343.15 K, x1 = 0.8154 | 0.321 ± 0.006 | 25.9 ± 0.7
348.15 K, x1 = 0.401 | 1.29 ± 0.03 | 9 ± 0.24
348.15 K, x1 = 0.5763 | 0.625 ± 0.013 | 15 ± 0.4
353.15 K, x1 = 0.5763 | 0.729 ± 0.015 | 12.8 ± 0.3

CC(=O)[O-].CC[NH+](CC)CC + CS(C)=O
viscosity [mPa·s], 101 kPa
Conditions | 298.15 K | 303.15 K | 308.15 K
x2 = 0 | 24.12 ± 0.61 | 19.64 ± 0.5 | 16.13 ± 0.41
x2 = 0.0534 | 22.91 ± 0.58 | 18.67 ± 0.48 | 15.35 ± 0.39
x2 = 0.0936 | 22.01 ± 0.56 | 17.94 ± 0.46 | 14.76 ± 0.38
x2 = 0.1496 | 20.75 ± 0.53 | 16.93 ± 0.43 | 13.94 ± 0.36
x2 = 0.1837 | 19.99 ± 0.51 | 16.31 ± 0.42 | 13.44 ± 0.34
x2 = 0.2154 | 19.28 ± 0.49 | 15.74 ± 0.4 | 12.98 ± 0.33
x2 = 0.2836 | 17.76 ± 0.45 | 14.51 ± 0.37 | 11.98 ± 0.31
x2 = 0.3204 | 16.94 ± 0.43 | 13.85 ± 0.36 | 11.44 ± 0.29
x2 = 0.3837 | 15.53 ± 0.4 | 12.71 ± 0.33 | 10.51 ± 0.27
x2 = 0.4536 | 13.97 ± 0.36 | 11.45 ± 0.3 | 9.49 ± 0.25
x2 = 0.5169 | 12.56 ± 0.32 | 10.31 ± 0.27 | 8.56 ± 0.22
x2 = 0.5647 | 11.49 ± 0.3 | 9.45 ± 0.25 | 7.86 ± 0.21
x2 = 0.6447 | 9.71 ± 0.25 | 8.01 ± 0.21 | 6.69 ± 0.18
x2 = 0.7301 | 7.81 ± 0.2 | 6.48 ± 0.17 | 5.45 ± 0.15
x2 = 0.7884 | 6.52 ± 0.17 | 5.44 ± 0.15 | 4.61 ± 0.12
x2 = 0.839 | 5.41 ± 0.15 | 4.55 ± 0.12 | 3.89 ± 0.11
x2 = 0.8848 | 4.42 ± 0.12 | 3.76 ± 0.1 | 3.24 ± 0.09
x2 = 0.9121 | 3.84 ± 0.11 | 3.29 ± 0.09 | 2.86 ± 0.08
x2 = 0.9393 | 3.26 ± 0.09 | 2.82 ± 0.08 | 2.48 ± 0.07
x2 = 0.9649 | 2.72 ± 0.08 | 2.39 ± 0.07 | 2.13 ± 0.06
x2 = 0.9764 | 2.48 ± 0.07 | 2.2 ± 0.07 | 1.98 ± 0.06

O=S(=O)([N-]S(=O)(=O)C(F)(F)F)C(F)(F)F.[Li+] + CC[n+]1ccn(C)c1.O=S(=O)([N-]S(=O)(=O)C(F)(F)F)C(F)(F)F
101 kPa
Conditions | electrical conductivity, x2 = 0.6878 [S/m] | electrical conductivity, x2 = 0.746 [S/m] | electrical conductivity, x2 = 0.7874 [S/m] | electrical conductivity, x2 = 0.8765 [S/m] | electrical conductivity, x2 = 0.9376 [S/m] | viscosity, x2 = 0.8 [mPa·s]
288.15 K | 0.094 ± 0.01 | 0.146 ± 0.015 | 0.189 ± 0.019 | 0.351 ± 0.035 | 0.461 ± 0.046 | –
298.15 K | 0.175 ± 0.018 | 0.253 ± 0.026 | 0.315 ± 0.032 | 0.539 ± 0.054 | 0.686 ± 0.069 | 89.9 ± 7.9
333.15 K | 0.739 ± 0.074 | 0.91 ± 0.091 | 1.06 ± 0.11 | 1.53 ± 0.15 | 1.79 ± 0.18 | –
358.15 K | – | – | – | – | – | 13.33 ± 0.78

CCn1cc[nH+]c1.O=S(=O)([N-]S(=O)(=O)C(F)(F)F)C(F)(F)F + c1c[nH]cn1
Conditions | electrical conductivity [S/m]
303.15 K, 100 kPa, x1 = 0.948 | 0.427 ± 0.026

FC(F)C(F)(F)COC(F)(F)C(F)F + O=S(=O)([N-]S(=O)(=O)C(F)(F)F)C(F)(F)F.[Li+] + O=S1(=O)CCCC1
303.15 K, 101 kPa
Conditions | electrical conductivity [S/m]
x2 = 0.1429, x3 = 0.5714 | 0.073 ± 0.002
x2 = 0.1818, x3 = 0.5455 | 0.09 ± 0.002
x2 = 0.25, x3 = 0.5 | 0.09 ± 0.002
x2 = 0.4, x3 = 0.4 | 0.079 ± 0.002

CCCCCCCCCCCC[n+]1ccn(C)c1.[Cl-] + O
298.15 K, 100 kPa, frequency 0.001 MHz
Conditions | electrical conductivity [S/m]
x1 = 7.207e-05 | 0.035 ± 0.016
x1 = 9.009e-05 | 0.043 ± 0.017
x1 = 0.0001261 | 0.059 ± 0.017
x1 = 0.0001802 | 0.085 ± 0.017
x1 = 0.0002162 | 0.102 ± 0.016
x1 = 0.0002882 | 0.129 ± 0.011
x1 = 0.0003242 | 0.137 ± 0.0083
x1 = 0.0004143 | 0.155 ± 0.0076
x1 = 0.0004503 | 0.163 ± 0.0074
x1 = 0.0004863 | 0.17 ± 0.0077
x1 = 0.0005223 | 0.177 ± 0.0069
